The experiment concerns MCF7 cells. Nature of the experiment: Anti-proliferation (viability) of MCF7 cells (Table 7, FIG. 2B). Type of experiment: cell-based. To be noted: Homo sapiens, MCF7, MCF7 cells, 3-6 days, 10-point serial dilution; read-out: GI IC50 in MCF-7.

As usually defined, the IC50 is the concentration needed to halve the response being measured. On to `[2H]C([2H])([2H])Nc1ccc(C(=O)Nc2ccc(N(C)C)nn2)c(NC2CC3(C2)CN(C(=O)CCN2CCN(c4ccc(Nc5ncc6c(C)c(C(C)=O)c(=O)n(C7CCCC7)c6n5)nc4)CC2)C3)n1` [CPD-432, 2-((2-(3-(4-(6-((6-acetyl-8-cyclopentyl-5-methyl-7-oxo-7,8-dihydropyrido[2,3-d]pyrimidin-2-yl)amino)pyridin-3-yl)piperazin-1-yl)propanoyl)-2-azaspiro[3.3]heptan-6-yl)amino)-N-(6-(dimethylamino)pyridazin-3-yl)-6-((methyl-d3)amino)nicotinamide], for which the IC50 is less than 50 nM.
To `CC(=O)c1c(C)c2cnc(Nc3ccc(N4CCN(C(CC(=O)N5CC6(CC(Nc7nc(NC(C)C)ccc7C(=O)Nc7cc(C)n(C)n7)C6)C5)C(F)(F)F)CC4)cn3)nc2n(C2CCCC2)c1=O` (stereo not shown) [CPD-433, 2-((2-(3-(4-(6-((6-acetyl-8-cyclopentyl-5-methyl-7-oxo-7,8-dihydropyrido[2,3-d]pyrimidin-2-yl)amino)pyridin-3-yl)piperazin-1-yl)-4,4,4-trifluorobutanoyl)-2-azaspiro[3.3]heptan-6-yl)amino)-N-(1,5-dimethyl-1H-pyrazol-3-yl)-6-(isopropylamino)nicotinamide] belongs less than 50 nM.
The result for `[2H]C([2H])([2H])Nc1ccc(C(=O)Nc2cc(C)n(C)n2)c(NC2CC3(C2)CN(C(=O)CC(N2CCN(c4ccc(Nc5ncc6c(C)c(C(C)=O)c(=O)n(C7CCCC7)c6n5)nc4)CC2)C(F)(F)F)C3)n1` (stereo not shown) [CPD-434, 2-((2-(3-(4-(6-((6-acetyl-8-cyclopentyl-5-methyl-7-oxo-7,8-dihydropyrido[2,3-d]pyrimidin-2-yl)amino)pyridin-3-yl)piperazin-1-yl)-4,4,4-trifluorobutanoyl)-2-azaspiro[3.3]heptan-6-yl)amino)-N-(1,5-dimethyl-1H-pyrazol-3-yl)-6-((methyl-d3)amino)nicotinamide] reads less than 50 nM; that for `[2H]C([2H])([2H])Nc1ccc(C(=O)Nc2cn(C)c(C3CC3)n2)c(NC2CC3(C2)CN(C(=O)CC(N2CCN(c4ccc(Nc5ncc6c(C)c(C(C)=O)c(=O)n(C7CCCC7)c6n5)nc4)CC2)C(F)(F)F)C3)n1` (stereo not shown) [CPD-435, 2-((2-(3-(4-(6-((6-acetyl-8-cyclopentyl-5-methyl-7-oxo-7,8-dihydropyrido[2,3-d]pyrimidin-2-yl)amino)pyridin-3-yl)piperazin-1-yl)-4,4,4-trifluorobutanoyl)-2-azaspiro[3.3]heptan-6-yl)amino)-N-(2-cyclopropyl-1-methyl-1H-imidazol-4-yl)-6-((methyl-d3)amino)nicotinamide], less than 50 nM.
The result for `CC(=O)c1c(C)c2cnc(Nc3ccc(N4CCN(C(CC(=O)N5CC6(CC(Nc7nc(NC(C)C)ccc7C(=O)Nc7cn(C)c(C8CC8)n7)C6)C5)C(F)(F)F)CC4)cn3)nc2n(C2CCCC2)c1=O` (stereo not shown) [CPD-436, 2-((2-(3-(4-(6-((6-acetyl-8-cyclopentyl-5-methyl-7-oxo-7,8-dihydropyrido[2,3-d]pyrimidin-2-yl)amino)pyridin-3-yl)piperazin-1-yl)-4,4,4-trifluorobutanoyl)-2-azaspiro[3.3]heptan-6-yl)amino)-N-(2-cyclopropyl-1-methyl-1H-imidazol-4-yl)-6-(isopropylamino)nicotinamide] reads less than 50 nM; that for `CC(=O)c1c(C)c2cnc(Nc3ccc(N4CCC5(CC4)CC(C(=O)NC4CC6(C4)CC(Nc4nc(NC(C)C)ccc4C(=O)Nc4ccc(N(C)C)nn4)C6)C5)cn3)nc2n(C2CCCC2)c1=O` (stereo not shown) [CPD-437, 7-(6-((6-acetyl-8-cyclopentyl-5-methyl-7-oxo-7,8-dihydropyrido[2,3-d]pyrimidin-2-yl)amino)pyridin-3-yl)-N-(6-((3-((6-(dimethylamino)pyridazin-3-yl)carbamoyl)-6-(isopropylamino)pyridin-2-yl)amino)spiro[3.3]heptan-2-yl)-7-azaspiro[3.5]nonane-2-carboxamide], more than 100 nM; that for `[2H]C([2H])([2H])Nc1ccc(C(=O)Nc2ccc(N(C)C)nn2)c(NC2CC3(CC(NC(=O)C(C)N4CCN(c5ccc(Nc6ncc7c(C)c(C(C)=O)c(=O)n(C8CCCC8)c7n6)nc5)CC4)C3)C2)n1` (stereo not shown) [CPD-438, 2-((6-(2-(4-(6-((6-acetyl-8-cyclopentyl-5-methyl-7-oxo-7,8-dihydropyrido[2,3-d]pyrimidin-2-yl)amino)pyridin-3-yl)piperazin-1-yl)propanamido)spiro[3.3]heptan-2-yl)amino)-N-(6-(dimethylamino)pyridazin-3-yl)-6-((methyl-d3)amino)nicotinamide], 50 to 100 nM.
On to `[2H]C([2H])([2H])Nc1ccc(C(=O)Nc2ccc(N(C)C)nn2)c(NC2CC3(CC(NC(=O)C4CC45CCN(c4ccc(Nc6ncc7c(C)c(C(C)=O)c(=O)n(C8CCCC8)c7n6)nc4)CC5)C3)C2)n1` (stereo not shown) [CPD-439, 6-(6-((6-acetyl-8-cyclopentyl-5-methyl-7-oxo-7,8-dihydropyrido[2,3-d]pyrimidin-2-yl)amino)pyridin-3-yl)-N-(6-((3-((6-(dimethylamino)pyridazin-3-yl)carbamoyl)-6-((methyl-d3)amino)pyridin-2-yl)amino)spiro[3.3]heptan-2-yl)-6-azaspiro[2.5]octane-1-carboxamide], for which the IC50 was less than 50 nM.
Take `CC(=O)c1c(C)c2cnc(Nc3ccc(N4CCN(CC(=O)NC5CC6(C5)CC(Nc5nc(NC(C)C)ccc5C(=O)Nc5cc7n(n5)CCC7)C6)CC4)cn3)nc2n(C2CCCC2)c1=O` (stereo not shown) [CPD-440, 2-((6-(2-(4-(6-((6-acetyl-8-cyclopentyl-5-methyl-7-oxo-7,8-dihydropyrido[2,3-d]pyrimidin-2-yl)amino)pyridin-3-yl)piperazin-1-yl)acetamido)spiro[3.3]heptan-2-yl)amino)-N-(5,6-dihydro-4H-pyrrolo[1,2-b]pyrazol-2-yl)-6-(isopropylamino)nicotinamide]: the 50% inhibitory concentration (IC50) was less than 50 nM.
Turning to `[2H]C([2H])([2H])Nc1ccc(C(=O)Nc2ccc(N(C)C)nn2)c(NC2CCN(C(=O)CN3CCC4(CCN(c5ccc(Nc6ncc7c(C)c(C(C)=O)c(=O)n(C8CCCC8)c7n6)nc5)C4)C3)CC2)n1` (stereo not shown) [CPD-441, 2-((1-(2-(7-(6-((6-acetyl-8-cyclopentyl-5-methyl-7-oxo-7,8-dihydropyrido[2,3-d]pyrimidin-2-yl)amino)pyridin-3-yl)-2,7-diazaspiro[4.4]nonan-2-yl)acetyl)piperidin-4-yl)amino)-N-(6-(dimethylamino)pyridazin-3-yl)-6-((methyl-d3)amino)nicotinamide], the IC50 was less than 50 nM.
The result for `[2H]C([2H])([2H])Nc1ccc(C(=O)Nc2ccc(N(C)C)nn2)c(NC2CN(C(=O)CN3CCC4(CCN(c5ccc(Nc6ncc7c(C)c(C(C)=O)c(=O)n(C8CCCC8)c7n6)nc5)C4)C3)C2)n1` (stereo not shown) [CPD-442, 2-((1-(2-(7-(6-((6-acetyl-8-cyclopentyl-5-methyl-7-oxo-7,8-dihydropyrido[2,3-d]pyrimidin-2-yl)amino)pyridin-3-yl)-2,7-diazaspiro[4.4]nonan-2-yl)acetyl)azetidin-3-yl)amino)-N-(6-(dimethylamino)pyridazin-3-yl)-6-((methyl-d3)amino)nicotinamide] reads more than 100 nM.
In the case of `[2H]C([2H])([2H])Nc1ccc(C(=O)Nc2cn(C)c(C3CC3)n2)c(NC2CC3(C2)CN(C(=O)CN2CCC4(CCN(c5ccc(Nc6ncc7c(C)c(C(C)=O)c(=O)n(C8CCCC8)c7n6)nc5)C4)C2)C3)n1` (stereo not shown) [CPD-443, 2-((2-(2-(7-(6-((6-acetyl-8-cyclopentyl-5-methyl-7-oxo-7,8-dihydropyrido[2,3-d]pyrimidin-2-yl)amino)pyridin-3-yl)-2,7-diazaspiro[4.4]nonan-2-yl)acetyl)-2-azaspiro[3.3]heptan-6-yl)amino)-N-(2-cyclopropyl-1-methyl-1H-imidazol-4-yl)-6-((methyl-d3)amino)nicotinamide], the half-inhibitory concentration (IC50) was less than 50 nM.
Consider `CC(=O)c1c(C)c2cnc(Nc3ccc(N4CCC5(CCN(CC(=O)N6CC7(CC(Nc8nc(NC(C)C)ccc8C(=O)Nc8cn(C)c(C9CC9)n8)C7)C6)C5)C4)cn3)nc2n(C2CCCC2)c1=O` (stereo not shown) [CPD-444, 2-((2-(2-(7-(6-((6-acetyl-8-cyclopentyl-5-methyl-7-oxo-7,8-dihydropyrido[2,3-d]pyrimidin-2-yl)amino)pyridin-3-yl)-2,7-diazaspiro[4.4]nonan-2-yl)acetyl)-2-azaspiro[3.3]heptan-6-yl)amino)-N-(2-cyclopropyl-1-methyl-1H-imidazol-4-yl)-6-(isopropylamino)nicotinamide], for which the half-maximal inhibitory concentration (IC50) is less than 50 nM.
To `[2H]C([2H])([2H])Nc1ccc(C(=O)Nc2ccc(N(C)C)nn2)c(NC2CC(CNC(=O)CN3CCC4(CCN(c5ccc(Nc6ncc7c(C)c(C(C)=O)c(=O)n(C8CCCC8)c7n6)nc5)C4)C3)C2)n1` (stereo not shown) [CPD-445, 2-((3-((2-(7-(6-((6-acetyl-8-cyclopentyl-5-methyl-7-oxo-7,8-dihydropyrido[2,3-d]pyrimidin-2-yl)amino)pyridin-3-yl)-2,7-diazaspiro[4.4]nonan-2-yl)acetamido)methyl)cyclobutyl)amino)-N-(6-(dimethylamino)pyridazin-3-yl)-6-((methyl-d3)amino)nicotinamide] belongs less than 50 nM; to `[2H]C([2H])([2H])Nc1ccc(C(=O)Nc2ccc(N(C)C)nn2)c(NC2CC3(CC(NC(=O)CN4CCC5(CCN(c6ccc(Nc7ncc8c(C)c(C(C)=O)c(=O)n(C9CCCC9)c8n7)nc6)C5)C4)C3)C2)n1` (stereo not shown) [CPD-449, 2-((6-(2-(7-(6-((6-acetyl-8-cyclopentyl-5-methyl-7-oxo-7,8-dihydropyrido[2,3-d]pyrimidin-2-yl)amino)pyridin-3-yl)-2,7-diazaspiro[4.4]nonan-2-yl)acetamido)spiro[3.3]heptan-2-yl)amino)-N-(6-(dimethylamino)pyridazin-3-yl)-6-((methyl-d3)amino)nicotinamide], less than 50 nM.
For `[2H]C([2H])([2H])Nc1ccc(C(=O)Nc2ccc(N(C)C)nn2)c(NC2CC(NC(=O)CN3CCC4(CCN(c5ccc(Nc6ncc7c(C)c(C(C)=O)c(=O)n(C8CCCC8)c7n6)nc5)C4)C3)C2)n1` (stereo not shown) [CPD-450, 2-((3-(2-(7-(6-((6-acetyl-8-cyclopentyl-5-methyl-7-oxo-7,8-dihydropyrido[2,3-d]pyrimidin-2-yl)amino)pyridin-3-yl)-2,7-diazaspiro[4.4]nonan-2-yl)acetamido)cyclobutyl)amino)-N-(6-(dimethylamino)pyridazin-3-yl)-6-((methyl-d3)amino)nicotinamide], the IC50 was less than 50 nM.

Source of the values: US20260297081A1, “COMPOUNDS AND METHODS OF TREATING CANCERS” (Cullgen Inc., priority 2023, published 2026).
